Test results: the supplement of paper PMC10307832

Legend:
Experiment in all cases: relative viability (nuclei count vs DMSO), 5 days (fraction); higher = more cells survive
[1] = tested on: LU99A
In short: (§1)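 A single step with final 0.05% Triton X-100, 1% formaldehyde and 1 ug/ml Hoechst fixed the cells and stained nuclei 5 days after treatment. Lung cancer cell lines in 1536-well plates had been treated by pin tool the day after seeding with one drug alone or a fixed anchor-drug dose plus five library-drug doses (not always all listed) in √10 steps, and nuclei were counted on 4× images. Relative viability is the ratio of nuclei in treated wells to nuclei in vehicle wells, taken as the median of duplicate plates.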

[2] = tested on: NCI-H596
In short: as §1

[3] = tested on: LCLC-103H
In short: as §1

[4] = tested on: HCC-44
In short: as §1

[5] = tested on: PC-3 [JPC-3]
In short: as §1

[6] = tested on: 201T
In short: as §1

[7] = tested on: NCI-H727
In short: as §1

[8] = tested on: NCI-H23
In short: as §1

[9] = tested on: LCLC-97TM1
In short: as §1

[10] = tested on: NCI-H460
In short: as §1

[11] = tested on: A-427
In short: as §1

[12] = tested on: NCI-H2228
In short: as §1

[13] = tested on: H3255
In short: as §1

[14] = tested on: LK-2
In short: as §1

[15] = tested on: NCI-H1793
In short: as §1

[16] = tested on: NCI-H2347
In short: as §1

[17] = tested on: NCI-H1563
In short: as §1

[18] = tested on: PC-14
In short: as §1

[19] = tested on: COR-L23
In short: as §1

[20] = tested on: LC-2-ad
In short: as §1

[21] = tested on: SW 1573
In short: as §1

In the case of O=c1cc(-c2cccc3c2Sc2ccccc2S3)oc(N2CCOCC2)c1 + C[C@]1(O)C[C@@H](c2nc(-c3ccc4ccc(-c5ccccc5)nc4c3)c3c(N)nccn32)C1 [Linsitinib] (partner 1 µM), the relative viability ([1]; first compound 0.08 µM) is reported as 0.58, the relative viability ([1]; first compound 0.253 µM) is reported as 0.582 and the relative viability ([1]; first compound 0.8 µM) is reported as 0.631. The relative viability ([1]; first compound 2.53 µM) was 0.544, the relative viability ([1]; first compound 8 µM) was 0.608 and the relative viability ([2]; first compound 0.08 µM) was 1.02. The relative viability ([2]; first compound 0.253 µM) was 1.2, the relative viability ([2]; first compound 0.8 µM) was 1.14 and the relative viability ([2]; first compound 2.53 µM) was 1.08. The relative viability ([2]; first compound 8 µM) was 1.15, the relative viability ([3]; first compound 0.08 µM) was 1.06 and the relative viability ([3]; first compound 0.253 µM) was 1.1. The relative viability ([3]; first compound 0.8 µM) was 1.08, the relative viability ([3]; first compound 2.53 µM) was 1.06 and the relative viability ([3]; first compound 8 µM) was 1.06. For the same compound, the relative viability ([4]; first compound 0.08 µM) was 0.681, the relative viability ([4]; first compound 0.253 µM) was 0.532 and the relative viability ([4]; first compound 0.8 µM) was 0.696. For the same compound, the relative viability ([4]; first compound 2.53 µM) was 0.623, the relative viability ([4]; first compound 8 µM) was 0.548 and the relative viability ([5]; first compound 0.08 µM) was 1.02. For the same compound, the relative viability ([5]; first compound 0.253 µM) was 1.03, the relative viability ([5]; first compound 0.8 µM) was 0.992 and the relative viability ([5]; first compound 2.53 µM) was 0.972. The relative viability ([5]; first compound 8 µM) was 0.91, the relative viability ([6]; first compound 0.08 µM) was 0.99 and the relative viability ([6]; first compound 0.253 µM) was 1.04. The relative viability ([6]; first compound 0.8 µM) was 0.929, the relative viability ([6]; first compound 2.53 µM) was 0.974 and the relative viability ([6]; first compound 8 µM) was 0.986. It also gave a relative viability ([7]; first compound 0.253 µM) of 0.284, a relative viability ([7]; first compound 2.53 µM) of 0.314 and a relative viability ([7]; first compound 8 µM) of 0.304. For the same compound, the relative viability ([8]; first compound 0.08 µM) was 0.596, the relative viability ([8]; first compound 0.253 µM) was 0.738 and the relative viability ([8]; first compound 0.8 µM) was 0.578. For the same compound, the relative viability ([8]; first compound 2.53 µM) was 0.684, the relative viability ([8]; first compound 8 µM) was 0.574 and the relative viability ([9]; first compound 0.08 µM) was 0.18. It also gave a relative viability ([9]; first compound 0.253 µM) of 0.194, a relative viability ([9]; first compound 0.8 µM) of 0.203 and a relative viability ([9]; first compound 2.53 µM) of 0.188. It also gave a relative viability ([9]; first compound 8 µM) of 0.185, a relative viability ([10]; first compound 0.08 µM) of 0.991 and a relative viability ([10]; first compound 0.253 µM) of 0.997. It also gave a relative viability ([10]; first compound 0.8 µM) of 1.08, a relative viability ([10]; first compound 2.53 µM) of 0.796 and a relative viability ([10]; first compound 8 µM) of 0.791. The relative viability ([11]; first compound 0.08 µM) was 1.09, the relative viability ([11]; first compound 0.253 µM) was 0.959 and the relative viability ([11]; first compound 0.8 µM) was 1.19. The relative viability ([11]; first compound 2.53 µM) was 1.07, the relative viability ([11]; first compound 8 µM) was 1.08 and the relative viability ([12]; first compound 0.08 µM) was 0.545. For the same compound, the relative viability ([12]; first compound 0.253 µM) was 0.588, the relative viability ([12]; first compound 0.8 µM) was 0.826 and the relative viability ([12]; first compound 2.53 µM) was 0.592. The relative viability ([12]; first compound 8 µM) was 0.63, the relative viability ([13]; first compound 0.08 µM) was 1.15 and the relative viability ([13]; first compound 0.253 µM) was 1.03. It also gave a relative viability ([13]; first compound 0.8 µM) of 1.02, a relative viability ([13]; first compound 2.53 µM) of 0.865 and a relative viability ([13]; first compound 8 µM) of 0.983. It also gave a relative viability ([14]; first compound 0.08 µM) of 0.64, a relative viability ([14]; first compound 0.253 µM) of 0.527 and a relative viability ([14]; first compound 0.8 µM) of 0.549. It also gave a relative viability ([14]; first compound 2.53 µM) of 0.533, a relative viability ([14]; first compound 8 µM) of 0.651 and a relative viability ([15]; first compound 0.08 µM) of 0.674. For the same compound, the relative viability ([15]; first compound 0.253 µM) was 1.19, the relative viability ([15]; first compound 0.8 µM) was 0.992 and the relative viability ([15]; first compound 2.53 µM) was 0.821. It also gave a relative viability ([15]; first compound 8 µM) of 0.919, a relative viability ([16]; first compound 0.08 µM) of 0.918 and a relative viability ([16]; first compound 0.253 µM) of 1.15. The relative viability ([16]; first compound 0.8 µM) was 0.998, the relative viability ([16]; first compound 2.53 µM) was 1.02 and the relative viability ([16]; first compound 8 µM) was 1.11. The relative viability ([17]; first compound 0.08 µM) was 1.19, the relative viability ([17]; first compound 0.253 µM) was 1.42 and the relative viability ([17]; first compound 0.8 µM) was 1.2. The relative viability ([17]; first compound 2.53 µM) was 1.2, the relative viability ([17]; first compound 8 µM) was 1.06 and the relative viability ([18]; first compound 0.08 µM) was 1.02. The relative viability ([18]; first compound 0.253 µM) was 1.07, the relative viability ([18]; first compound 0.8 µM) was 0.966 and the relative viability ([18]; first compound 2.53 µM) was 0.92. For the same compound, the relative viability ([18]; first compound 8 µM) was 0.948, the relative viability ([19]; first compound 0.08 µM) was 0.958 and the relative viability ([19]; first compound 0.253 µM) was 0.965. For the same compound, the relative viability ([19]; first compound 0.8 µM) was 1.13, the relative viability ([19]; first compound 2.53 µM) was 1.08 and the relative viability ([19]; first compound 8 µM) was 1.04. The relative viability ([20]; first compound 0.08 µM) was 0.79, the relative viability ([20]; first compound 0.253 µM) was 0.967 and the relative viability ([20]; first compound 0.8 µM) was 0.828. It also gave a relative viability ([20]; first compound 2.53 µM) of 0.749, a relative viability ([20]; first compound 8 µM) of 0.802 and a relative viability ([21]; first compound 0.08 µM) of 0.855. The relative viability ([21]; first compound 0.253 µM) was 0.819, the relative viability ([21]; first compound 0.8 µM) was 0.685 and the relative viability ([21]; first compound 2.53 µM) was 0.809. For the same compound, the relative viability ([21]; first compound 8 µM) was 0.811.
